Data: BindingDB's records for doi:10.1016/0028-3908(95)00017-z (Merz, 1995)
Where “and” joins values, the source holds several entries; their conditions need not be identical. Identical values can stand only once.

Target: Glutamate receptor ionotropic, NMDA 1 (Rattus norvegicus, UniProt P35439)

| Compound | Ki |
| --- | --- |
| CN[C@@]1(c2ccccc2Cl)CCCCC1=O [2-(2-Chloro-phenyl)-2-methylamino-cyclohexanone(Ketamine)] | 1190 nM and 2510 nM |
| N[C@@H](Cc1ccc(Cl)cc1)C(=O)O [CAS_7424-00-2] | 42.2 nM and 180 nM |
